Earlier results on one substance are cited in US4477441A, “Renin inhibitors containing a C-terminal disulfide cycle” (Merck & Co., Inc., priority 1983, dated 1984).

The test system of this data set is hog renin. Particulars: nephrectomized rats after injection of hog renin; Gross et al. 1971.

Consider Pepstatin, for which the “blood pressure in vivo” value is on record as “reduce blood pressure in vivo”.
